# From ChEMBL document CHEMBL1146964, “Factor VIIa inhibitors: improved pharmacokinetic parameters” (Bioorg Med Chem Lett, 2006)
# Columns and labels:
# [1] = Plasma clearance in iv dosed rat
# [2] = target: Coagulation factor VII/tissue factor (Homo sapiens, UniProt P08709); test: Binding affinity to factor7a/TF complex; type: protein-complex assay
# [3] = Mean residence time in iv dosed rat; type: ADME, organism-based; conditions: in vivo
# [4] = Bioavailability in sc dosed rat; type: ADME, organism-based; conditions: in vivo
# Sequence of Coagulation factor VII/tissue factor (P08709 61-212 limits assumed): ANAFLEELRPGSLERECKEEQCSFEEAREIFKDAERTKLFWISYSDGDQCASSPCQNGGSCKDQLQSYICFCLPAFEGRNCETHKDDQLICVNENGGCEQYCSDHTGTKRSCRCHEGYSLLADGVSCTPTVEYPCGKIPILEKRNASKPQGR
# Sequence of Coagulation factor VII/tissue factor (P08709 213-466 limits assumed): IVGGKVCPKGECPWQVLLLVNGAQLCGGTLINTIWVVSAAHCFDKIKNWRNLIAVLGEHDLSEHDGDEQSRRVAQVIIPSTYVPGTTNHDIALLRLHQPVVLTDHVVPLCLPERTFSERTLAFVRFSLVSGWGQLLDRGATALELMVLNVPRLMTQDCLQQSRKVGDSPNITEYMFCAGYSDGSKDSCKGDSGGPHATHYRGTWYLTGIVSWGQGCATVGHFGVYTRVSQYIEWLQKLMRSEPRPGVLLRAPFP
# Sequence of Coagulation factor VII/tissue factor (P13726 33-295 partner limits assumed): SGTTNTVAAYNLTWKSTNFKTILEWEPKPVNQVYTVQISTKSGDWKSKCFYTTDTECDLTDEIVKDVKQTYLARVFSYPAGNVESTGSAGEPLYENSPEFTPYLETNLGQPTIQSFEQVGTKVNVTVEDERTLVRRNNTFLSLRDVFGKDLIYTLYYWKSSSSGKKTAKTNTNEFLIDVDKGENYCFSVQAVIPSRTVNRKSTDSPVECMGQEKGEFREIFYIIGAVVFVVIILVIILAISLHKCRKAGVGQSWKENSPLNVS
Structure (SMILES),clearance [1] [mL/min/kg],Ki [2] [nM],MRT [3] [h],bioavailability [4] [%]
N=C(N)c1ccc2[nH]c(-c3cc(C(CC(=O)O)CC(=O)O)cc(-c4cccc([N+](=O)[O-])c4)c3O)cc2c1,–,13,1.5,–
N=C(N)c1ccc2nc(-c3cc(C(CCC(=O)O)C(=O)O)cc(-c4cccc([N+](=O)[O-])c4)c3O)[nH]c2c1 (centres undefined),–,17,5,–
N=C(N)c1ccc2nc(-c3cc(CC(=O)O)cc(-c4cccc([N+](=O)[O-])c4)c3O)[nH]c2c1,–,15,< 1,–
N=C(N)c1ccc2[nH]c(-c3cc(C(CC(=O)O)C(=O)O)cc(-c4cc(F)ccc4O)c3O)nc2c1 (centres undefined),–,4,9,> 90
N=C(N)c1ccc2nc(-c3cc(C(CC(=O)O)CC(=O)O)cc(-c4cccc([N+](=O)[O-])c4)c3O)[nH]c2c1,–,36,–,–
N=C(N)c1ccc2nc(-c3cc(CC(C(=O)O)C(=O)O)cc(-c4cccc([N+](=O)[O-])c4)c3O)[nH]c2c1,–,21,< 1,–
N=C(N)c1ccc2[nH]c(-c3cc(C(CC(=O)O)C(=O)O)cc(-c4cccc([N+](=O)[O-])c4)c3O)nc2c1 (centres undefined),0.04,22,> 24,–
N=C(N)c1ccc2[nH]c(-c3cc(CC(=O)O)cc(-c4cccc([N+](=O)[O-])c4)c3O)cc2c1,–,–,< 1,–

# Now from value to compound:
clearance [1] [mL/min/kg],Ki [2] [nM],MRT [3] [h],bioavailability [4] [%],Structure (SMILES)
2.6,4,< 1,–,N=C(N)c1ccc2[nH]c(-c3cc(CC(CC(=O)O)C(=O)O)cc(-c4cc(F)ccc4O)c3O)nc2c1 (centres undefined)
8.1,2,< 1,–,N=C(N)c1ccc2[nH]c(-c3cc(CC(=O)O)cc(-c4cc(F)ccc4O)c3O)nc2c1
–,1,> 24,–,N=C(N)c1ccc2[nH]c(-c3cc(C(CC(=O)O)C(=O)O)cc(-c4cccc([N+](=O)[O-])c4)c3O)cc2c1 (centres undefined)
